Measured values as given in patent US20260250325A1, “Antiviral Polypeptide Membrane Fusion Inhibitor, and Preparation Method and Application Thereof” (priority 2025, published 2026).
Where a SMILES comes first, the peptide text is derived from it. The star is where a group is joined. Succinyl(4-O-cholesteryl) = CC(C)CCC[C@@H](C)[C@H]1CC[C@H]2[C@@H]3CC=C4C[C@@H](OC(=O)CCC(=O)*)CC[C@]4(C)[C@H]3CC[C@]12C

How the values were obtained:
RSV A2 virus strain = assay: Cotton rat RSV A2 challenge protection, lung nucleic acid load by RT-qPCR; assay type: in vivo; details: cotton rats; for Nucleic acid load RT-qPCR detection results Log10 mean (copy number/gram of lung tissue): tracheal nebulization 1 mg/kg QD for 5 days, lung collected 2 h after final administration on Day 4; for effect on viral titer in lung tissue (in words): tracheal nebulization once daily for 5 days
hMPV A2 = assay type: cell-based; details: Vero cells, plaque reduction
Method in brief: (§1)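 Plaque reduction in Vero cells (40000/well), 8 concentrations in duplicate; compound pre-mixed with ~200 PFU virus 1 h at 33° C, adsorbed 2 h at 37° C, then overlay with compound, 0.8% CMC, 5 μg/ml trypsin, 0.5% DMSO for 1 day at 33° C. Plaques immunostained (TrueBlue) and counted; EC50 by four-parameter fit.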

hMPV B1 = assay type: cell-based; details: Vero cells, plaque reduction
Method in brief: as §1

Row | Compound | Nucleic acid load RT-qPCR detection results Log10 mean (copy number/gram of lung tissue) (RSV A2 virus strain) | effect on viral titer in lung tissue (in words) (RSV A2 virus strain) | EC50 (hMPV A2) [nM] | EC50 (hMPV B1) [nM]
1 | CC[C@H](C)[C@H](NC(=O)[C@H](CCCCN)NC(=O)[C@H](CCCCN)NC(=O)[C@H](CC(C)C)NC(=O)[C@H](CO)NC(=O)[C@H](CCC(=O)O)NC(=O)[C@H](CCC(=O)O)NC(=O)[C@@H](NC(=O)[C@H](CCCCN)NC(=O)[C@H](CCCCN)NC(=O)[C@H](CC(N)=O)NC(=O)[C@@H](NC(=O)[C@H](CCC(=O)O)NC(=O)[C@H](CCC(=O)O)NC(=O)[C@@H](NC(=O)[C@H](CCCCN)NC(=O)[C@H](CCCCN)NC(=O)[C@H](CC(=O)O)NC(=O)[C@H](Cc1ccccc1)NC(=O)[C@H](CCC(=O)O)NC(=O)[C@H](CC(=O)O)NC(=O)[C@H](Cc1c[nH]c2ccccc12)NC(C)=O)[C@@H](C)CC)C(C)C)[C@@H](C)CC)C(=O)N[C@@H](CCC(=O)O)C(=O)N[C@@H](CCC(=O)O)C(=O)N[C@@H](CO)C(=O)N[C@@H](CC(=O)O)C(=O)N[C@@H](CCCCN)C(=O)N[C@@H](CCCCN)C(=O)N[C@@H](CC(C)C)C(=O)N[C@@H](CCC(=O)O)C(=O)N[C@@H](CCC(=O)O)C(=O)N[C@H](C(=O)N[C@@H](CC(N)=O)C(=O)N[C@@H](C)C(=O)N[C@@H](CCC(=O)O)C(=O)N[C@@H](C)C(=O)N[C@@H](C)C(=O)N[C@@H](C)C(=O)N[C@@H](CCCCN)C(=O)N[C@@H](CCCCNC(=O)CCC(=O)O[C@H]1CC[C@@]2(C)C(=CC[C@H]3[C@@H]4CC[C@H]([C@H](C)CCCC(C)C)[C@@]4(C)CC[C@@H]32)C1)C(N)=O)C(C)C [Compound 40] (Ac-WDEFDKKIEEVNKKIEESLKKIEESDKKLEEVNAEAAAKK(Succinyl(4-O-cholesteryl))-NH2) | 7.71 Log10 copy number/gram of lung | significantly reduce the viral titer in lung tissue | 13.8 | 7.47
2 | Ac-FDEEISQVNEKINQSLAFIRKSDELLHNVNAGKSTTEAAAKK(Succinyl(4-O-cholesteryl))-NH2 [Compound 26] | 7.78 Log10 copy number/gram of lung | significantly reduce the viral titer in lung tissue | 103 | 2.85
3 | Ac-WDEFDASISQVNEKINQSLEEIRKSDELLHNVNAGLGSGSGK(Succinyl(4-O-cholesteryl))-NH2 [Compound 27] | 8.86 Log10 copy number/gram of lung | significantly reduce the viral titer in lung tissue | 78.3 | 10.5
